Test results reported in PubChem BioAssay (NCI).
Values joined by “and” are separate entries in the source; they are usually repeats but may differ in a detail not shown here. Equal values may be shown once.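 Interpolation was linear, between the two tested concentrations surrounding the appropriate level; five concentrations were tested over 48 hours in 96-well plates. GI50 marks 50% less growth. Definition used: TGI = concentration required for complete inhibition of growth.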

How the values were obtained:
Experiment in all cases: NCI anticancer screen, dose series, 48 h
HCT-116 colon = tested on: HCT-116 colon
SNB-75 CNS = tested on: SNB-75 CNS
ACHN renal = tested on: ACHN renal
SF-268 CNS = tested on: SF-268 CNS
NCI-H522 lung = tested on: NCI-H522 lung
RPMI-8226 leukemia = tested on: RPMI-8226 leukemia
MDA-MB-435 = tested on: MDA-MB-435
MOLT-4 leukemia = tested on: MOLT-4 leukemia
UACC-62 melanoma = tested on: UACC-62 melanoma
HCC-2998 colon = tested on: HCC-2998 colon

Compound	GI50 (HCT-116 colon)	TGI (HCT-116 colon) [µM]	GI50 (SNB-75 CNS)	TGI (SNB-75 CNS)	GI50 (ACHN renal)	TGI (ACHN renal) [µM]	GI50 (SF-268 CNS)	TGI (SF-268 CNS) [µM]	GI50 (NCI-H522 lung)	TGI (NCI-H522 lung) [µM]	GI50 (RPMI-8226 leukemia)	TGI (RPMI-8226 leukemia) [µM]	GI50 (MDA-MB-435)	TGI (MDA-MB-435) [µM]	GI50 (MOLT-4 leukemia)	TGI (MOLT-4 leukemia) [µM]	GI50 (UACC-62 melanoma)	TGI (UACC-62 melanoma) [µM]	GI50 (HCC-2998 colon)	TGI (HCC-2998 colon) [µM]
Cc1sc2c(c1C)C(c1ccc(Cl)cc1)=N[C@@H](CC(=O)NCCCN1CCN(C)CC1)c1nnc(C)n1-2	0.579 µM	> 100	< 0.0106 µM	0.16 µM	17.1 µM	> 100	30.3 µM	> 100	0.0746 µM	> 100	0.0417 µM	5.38	0.621 µM	> 100	22.2 µM	> 100	0.214 µM	> 100	2.55 µM	> 100
C=CC(=O)Nc1cccc(Oc2nc(Nc3ccc(N4CCN(C)CC4)cc3OC)ncc2Cl)c1	1.64 µM	3.06	1.52 µM	3.98 µM	0.421 µM	3.14	2.37 µM	9.24	0.308 µM	1.75	1.97 µM	5.1	1.7 µM	3.24	2.57 µM	> 23.4	1.87 µM	3.58	1.72 µM	3.35
Nc1ncn([C@H]2C[C@H](OP(=O)(O)OC[C@H]3O[C@@H](n4cnc5c(=O)[nH]c(N)nc54)C[C@@H]3O)[C@@H](CO)O2)c(=O)n1	23 µM	> 100	> 100 µM	> 100 µM	38.4 µM	> 100	> 100 µM	> 100	> 100 µM	> 100	> 100 µM	> 100	> 100 µM	> 100	> 100 µM	> 100	> 100 µM	> 100	> 100 µM	> 100
O=[N+]([O-])c1oc2ccc3ccccc3c2c1CCO		> 29.7		16.7 µM		3.68		40.5		3.77		22.2		3.16		> 100		12.5		1.24
COc1ccc(Cn2cc3c(c2-c2cc(OC)c(OC)c(OC)c2)CCc2c(CO)noc2-3)cc1	0.311 µM	11.4	0.177 µM	24.4 µM	0.659 µM	45	1.58 µM	26.5	0.206 µM	12.2	0.41 µM	13.6	0.0605 µM	0.245	0.458 µM	27.8	0.354 µM	20.7	1.08 µM	19.2
CC(C)C(=O)c1c(C(F)(F)F)n([O-])c2ccccc2[n+]1=O	1.25 µM	3.99	15.2 µM	> 42.7 µM	2.3 µM		1.03 µM	4.66	1.76 µM	15.1	0.178 µM	1.31	1.07 µM	3.45	1.27 µM	9.65	1.59 µM	3.44	1.74 µM	4.04
Cc1ccccc1C(C(=O)NC1CCCCC1)N(C(=O)CNc1ncccc1F)c1cccc(F)c1 (centres undefined)	96.9 µM	> 100	6.14 µM	24.6 µM	49.8 µM	> 100	48.7 µM	> 100	74.9 µM	> 100	> 100 µM	> 100	> 100 µM	> 100	> 100 µM	> 100	> 75.4 µM	> 100	> 100 µM	> 100
O=C1NC(=NCCc2ccccn2)S/C1=C\c1ccc2ncccc2c1	8.25 µM	> 25	1.69 µM	> 20.7 µM	8.2 µM	> 25	11.4 µM	> 25	9.02 µM	> 22.6	13.1 µM	> 25	9.59 µM	> 25	8.04 µM	22.6	9.73 µM	> 25	> 21.4 µM	> 25
CC(C)Cc1ccc(C(C)C(=O)NCc2ccc(Cn3c(=O)sn(CCCI)c3=O)cc2)cc1 (centres undefined)	0.134 µM	0.393	0.558 µM	1.96 µM	0.233 µM	0.633	1.46 µM	2.95	0.309 µM	1.04	0.34 µM	2.2	0.485 µM	1.77	0.511 µM	> 28.3	1.17 µM	2.44	1.75 µM	3.38
CCOC(=O)c1cc(NS(=O)(=O)c2ccc(C)cc2)cc(C(=O)OCC)c1	39.5 µM	> 100	23.1 µM	68.9 µM	42.3 µM	> 100	40.4 µM	> 100	34.5 µM	> 100	27 µM	> 100	33.6 µM	> 100	26.6 µM	> 100	44.2 µM	> 100	19.5 µM	70.8
O=C1c2cc(F)ccc2-c2c1c1ccc([N+](=O)[O-])cc1c(=O)n2CCCBr	7.23 µM	36.7	2.97 µM	50.5 µM	3.91 µM	> 100	8.56 µM	> 100	4.87 µM	> 100	5.98 µM	51.8	37.5 µM	> 100	2.8 µM	14.2	22.8 µM	77.7	10.7 µM	> 100
Cc1ccsc1-c1ccc2c(c1)COC2(CCCN(C)C)c1ccc(F)cc1 (centres undefined)	1.88 µM	3.7	1.72 µM	6.82 µM	3.48 µM	13.3	4.28 µM	17.1	3.02 µM	12.4	2.12 µM	4.88	1.68 µM	3.24	2.7 µM	8.43	1.89 µM	4.04	1.71 µM	3.25
CNC(=O)c1cccc(C#Cc2cncnc2Nc2ccc(OCc3cccc(F)c3)c(Cl)c2)c1	5.11 µM	13.6	5.26 µM	14.4 µM	4.18 µM	24.9	4.54 µM	12.9	5.29 µM	> 25	14 µM	> 25	7.02 µM	> 25	> 25 µM	> 25	16 µM	> 25	9.15 µM	> 25
CC(=O)N[C@@H](Cc1ccc(OP(=O)(O)O)cc1)C(=O)N[C@H]1CCC(=O)N2CCC[C@@H](C(=O)NCc3ccccc3)N2C1=O	> 25 µM	> 25	> 25 µM	> 25 µM	> 25 µM	> 25	> 25 µM	> 25	> 25 µM	> 25	> 25 µM	> 25	> 25 µM	> 25	> 25 µM	> 25	> 25 µM	> 25	> 25 µM	> 25
COc1ccc(-c2cn(-c3cc(OC)c(OC)c(OC)c3)c(=O)[nH]2)cc1OC	> 100 µM	> 100	71.7 µM	> 100 µM	> 100 µM	> 100	> 100 µM	> 100	> 100 µM	> 100	> 100 µM	> 100	> 100 µM	> 100	> 100 µM	> 100	> 100 µM	> 100	> 100 µM	> 100
Cc1cccc(Cl)c1NC(=O)c1cnc(Nc2cc(N3CCOCC3)cc(S(C)(=O)=O)c2)s1	0.313 µM	> 10	0.0202 µM	0.196 µM	0.364 µM	> 7.11	0.354 µM	> 10	0.264 µM	> 10	> 10 µM	> 10	> 9.63 µM	> 10	5.71 µM	> 10	0.922 µM	> 10	> 2.53 µM	> 10
C/C=C(\C)C(=O)O[C@H]1C=CC(=O)O[C@H]1COC(=O)[C@H](C)O	2.72 µM	10.9	6.95 µM	20.9 µM	4.38 µM	16.6	4.32 µM	17.6	7.1 µM	23.7	3.2 µM	14.5	5.74 µM	22.4	1.95 µM	5.22	7.71 µM	21	14.9 µM	30
Cc1ccc(OCCOCCOCCOCCOCCOc2ccc(C)n(O)c2=S)c(=S)n1O	0.0302 µM	27.5	0.456 µM	18.1 µM	0.0494 µM	> 87.2	0.0693 µM	> 100	0.0386 µM	> 100	0.0713 µM	> 100	0.186 µM	52.6	0.0422 µM	> 100	0.0815 µM	12.5	0.444 µM	46.9
COc1cc(/C=C/C(=O)c2c(-c3ccc(F)cc3)nc3sc(C)nn23)cc(OC)c1OC	1.64 µM	3.07	2.67 µM	14.6 µM	1.93 µM	4.6	2.74 µM	8.96	1.55 µM	3.19	1.92 µM	5.13	3.35 µM	13	2.3 µM	6.72	1.94 µM	4.44	2.12 µM	3.96
CC1Cc2ccccc2N1C(=O)Cc1nc(N2CCOCC2)cc(=O)[nH]1 (centres undefined)	6.47 µM and 24.8 µM	> 100	0.188 µM and 1.16 µM	> 100 µM and 23.3 µM	3.94 µM and 8.73 µM	> 100	18.1 µM and 19.9 µM	> 100	25.6 µM and 39.7 µM	> 100	22.9 µM and > 58.3 µM	> 100	20.9 µM and 27.7 µM	> 100	15.8 µM and 27.5 µM	> 100	0.856 µM and 1.73 µM	> 100	18.1 µM and 28.6 µM	> 100
CC/C=C\C[C@H](O)C/C=C1/C(=O)C=C[C@@H]1C/C=C\CCCCO	1.7 µM	3.33	11 µM	38.4 µM	1.8 µM	3.66	4.53 µM	23.9	1.74 µM	3.95	2.52 µM	10.4	3.48 µM	15.8	2.65 µM	11.1	1.87 µM	5.46	1.83 µM	3.38
CN(C)Cc1c(C(=O)NCCOc2ccc(C(=O)NO)cc2)oc2ccccc12	0.0705 µM	0.502	0.153 µM	> 40.7 µM	0.264 µM	1.15	0.464 µM	6.02	0.0819 µM	0.574	0.138 µM	0.662	0.174 µM	0.679	0.114 µM	1.53	0.151 µM	0.63	0.22 µM	0.83
O=C(O)c1cn(C2CC2)c2cc(N3CCN(Cc4c(O)ccc5ccccc45)CC3)c(F)cc2c1=O	2.37 µM	6.17	1.94 µM	17.8 µM	29.6 µM	> 100	56.8 µM	> 100	2.82 µM	> 100	12 µM	> 100	4.18 µM	> 100			13.5 µM	> 100	> 100 µM	> 100
O=c1cccc2n1CC1CNC[C@H]2C1		> 100		> 100 µM		> 100		> 100		> 100				> 100		> 100		> 100		> 100
Cc1c2c(nn1-c1ccc(S(=O)(=O)NC(=S)NC(=O)c3ccccc3)cc1)-c1ccccc1CC2			59.5 µM	> 100 µM	41 µM	> 100	29.3 µM	> 100	50.4 µM	> 100	36.3 µM	> 100	27.9 µM	91.4	> 100 µM	> 100	29 µM	> 100	89.2 µM	> 100
